In the supplement of paper PMC10307832:

What was measured:
Assay in all cases: relative viability (nuclei count vs DMSO), 5 days (fraction); higher = more cells survive
Quizartinib + Alpelisib = compound: CC(C)(C)c1cc(NC(=O)Nc2ccc(-c3cn4c(n3)sc3cc(OCCN5CCOCC5)ccc34)cc2)no1 [Quizartinib] + Cc1nc(NC(=O)N2CCC[C@H]2C(N)=O)sc1-c1ccnc(C(C)(C)C(F)(F)F)c1 [Alpelisib] (partner 2 µM)
Procedure, shortened: (§1)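 Values are medians from duplicate plates. Each reflects relative viability, defined as the nuclei count of treated wells over that of vehicle wells. Lung cancer cell lines in 1536-well plates were pin-tool dosed one day after seeding with one drug alone or with a fixed anchor-drug dose plus five library-drug doses (not always all listed) in √10 steps, then fixed, stained and imaged at 4× after 5 days.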

YM155 + Vorinostat = compound: COCC[n+]1c2c(n(Cc3cnccn3)c1C)C(=O)c1ccccc1C2=O [YM155] + O=C(CCCCCCC(=O)Nc1ccccc1)NO [Vorinostat] (partner 1 µM)
Procedure, shortened: as §1

Quizartinib + Phenformin = compound: CC(C)(C)c1cc(NC(=O)Nc2ccc(-c3cn4c(n3)sc3cc(OCCN5CCOCC5)ccc34)cc2)no1 [Quizartinib] + N=C(N)NC(=N)NCCc1ccccc1 [Phenformin] (partner 250 µM)
Procedure, shortened: as §1

Quizartinib + Trametinib = compound: CC(C)(C)c1cc(NC(=O)Nc2ccc(-c3cn4c(n3)sc3cc(OCCN5CCOCC5)ccc34)cc2)no1 [Quizartinib] + CC(=O)Nc1cccc(-n2c(=O)n(C3CC3)c(=O)c3c(Nc4ccc(I)cc4F)n(C)c(=O)c(C)c32)c1 [Trametinib] (partner 0.02 µM)
Procedure, shortened: as §1

Row | Cell Line | relative viability (Quizartinib + Alpelisib; first compound 0.001 µM) | relative viability (Quizartinib + Alpelisib; first compound 0.003162 µM) | relative viability (Quizartinib + Alpelisib; first compound 0.01 µM) | relative viability (Quizartinib + Alpelisib; first compound 0.03162 µM) | relative viability (Quizartinib + Alpelisib; first compound 0.1 µM) | relative viability (YM155 + Vorinostat; first compound 0.002 µM) | relative viability (YM155 + Vorinostat; first compound 0.006325 µM) | relative viability (YM155 + Vorinostat; first compound 0.02 µM) | relative viability (YM155 + Vorinostat; first compound 0.06325 µM) | relative viability (Quizartinib + Phenformin; first compound 0.001 µM) | relative viability (Quizartinib + Phenformin; first compound 0.003162 µM) | relative viability (Quizartinib + Phenformin; first compound 0.01 µM) | relative viability (Quizartinib + Phenformin; first compound 0.03162 µM) | relative viability (Quizartinib + Phenformin; first compound 0.1 µM) | relative viability (Quizartinib + Trametinib; first compound 0.001 µM) | relative viability (Quizartinib + Trametinib; first compound 0.003162 µM) | relative viability (Quizartinib + Trametinib; first compound 0.01 µM) | relative viability (Quizartinib + Trametinib; first compound 0.03162 µM) | relative viability (Quizartinib + Trametinib; first compound 0.1 µM)
1 | 201T | 0.759 | 0.957 | 0.988 | 0.987 | 0.982 | 0.931 | 0.96 | 0.982 | 0.961 | 0.472 | 0.426 | 0.476 | 0.408 | 0.438 | 0.595 | 0.696 | 0.755 | 0.708 | 0.742
2 | A549 | 0.661 | 0.763 | 0.849 | – | 0.833 | – | – | – | – | 0.166 | 0.155 | 0.201 | 0.117 | 0.162 | – | – | – | – | –
3 | A-427 | 1.06 | 1 | 1.12 | 1.06 | 1.04 | 0.812 | 0.849 | 0.838 | 0.629 | – | 0.411 | 0.327 | 0.256 | 0.189 | 0.517 | 0.691 | 0.675 | 0.591 | 0.704
4 | ABC-1 | 0.951 | 0.996 | 1.02 | 0.497 | 1.12 | – | 1.03 | 0.373 | 0.303 | 0.237 | 0.322 | 0.227 | 0.261 | 0.18 | – | – | – | – | –
5 | BEN | 0.919 | 0.863 | 1.05 | 0.795 | 0.969 | 0.516 | 0.511 | 0.619 | 0.679 | 0.271 | 0.279 | 0.272 | 0.243 | 0.26 | 0.998 | 1.02 | 1.19 | 0.925 | 1.22
6 | CAL-12T | 1.03 | 1.08 | 1.29 | 0.467 | 1.47 | 0.624 | 0.723 | 0.623 | 0.412 | 0.587 | 0.533 | 0.66 | 0.435 | 0.39 | 0.371 | 0.371 | 0.345 | 0.271 | 0.352
7 | COR-L23 | 0.725 | 0.708 | 0.843 | 0.61 | 0.759 | 0.434 | 0.501 | 0.274 | 0.125 | 0.419 | 0.389 | 0.476 | 0.37 | 0.322 | 0.518 | 0.552 | 0.595 | 0.479 | 0.543
8 | COR-L 105 | 0.751 | 0.898 | 1.12 | 0.527 | 1.05 | 0.77 | 0.875 | 0.905 | 0.541 | 0.449 | 0.495 | 0.471 | 0.406 | 0.426 | 0.449 | 0.445 | 0.507 | – | 0.516
9 | Calu-6 | 0.92 | 0.915 | 1 | 0.761 | 0.947 | – | – | – | – | – | – | – | – | – | – | – | – | – | –
10 | ChaGo-K-1 | – | – | – | – | – | 0.772 | 0.744 | 0.787 | 0.747 | 0.516 | 0.494 | 0.455 | 0.443 | 0.421 | – | 0.881 | 0.889 | 0.9 | 0.865
11 | EBC-1 | 0.664 | 0.708 | 0.89 | 0.915 | 0.812 | – | – | – | – | – | – | – | – | – | – | – | – | – | –
12 | EKVX | 0.799 | 0.841 | 0.924 | 0.914 | 0.973 | 0.767 | 0.793 | 0.671 | 0.725 | 0.21 | 0.24 | 0.238 | 0.244 | 0.25 | – | 0.327 | 0.331 | 0.437 | 0.284
13 | EMC-BAC-2 | 0.695 | 0.696 | 0.762 | 0.766 | 0.73 | 0.428 | 0.452 | 0.606 | 0.256 | 0.446 | 0.493 | 0.552 | – | 0.525 | 0.811 | 0.899 | 0.865 | – | 0.857
14 | EPLC-272H | 0.667 | 1.04 | 0.95 | 0.969 | 1.06 | 0.443 | 0.384 | 0.357 | 0.55 | 0.215 | 0.342 | 0.427 | 0.3 | 0.207 | 0.291 | 0.254 | 0.241 | 0.283 | 0.304
15 | H3255 | 0.55 | 0.619 | 0.795 | 0.63 | 0.797 | 0.729 | 0.78 | 0.776 | 0.671 | 0.38 | 0.31 | 0.383 | 0.346 | 0.354 | – | 0.561 | 0.653 | 0.637 | 0.663
16 | HARA | 0.485 | 0.78 | 0.893 | 0.791 | 0.749 | 0.578 | 0.462 | 0.547 | 0.606 | – | 0.453 | 0.489 | 0.445 | 0.386 | 0.508 | 0.715 | 0.626 | 0.555 | 0.459
17 | HCC-15 | 0.833 | 0.881 | 0.941 | 0.884 | 0.787 | 0.851 | 0.836 | 0.872 | 0.881 | – | 0.461 | 0.396 | – | 0.436 | 0.403 | 0.387 | 0.409 | 0.326 | 0.364
